Data taken from patent US9694073B2, “Small molecule inhibitors of polynucleotide kinase/phosphatase, poly(ADP-ribose) polymerase and uses thereof” (THE GOVERNORS OF THE UNIVERSITY OF ALBERTA, priority 2009, dated 2017).
“Also recorded” adds a separate entry of the source.

Legend:
Type in all cases: biochemical
[1] = target: T1, human PNKP kinase activity (Homo sapiens, UniProt Q96T60); test: DNA kinase assay
T1 construct: made in house; host or cells: bacteria (said only for the batch compared with aprataxin)
Procedure: Reaction mixtures (20 μl) containing kinase buffer (80 mM succinic acid (pH 5.5), 10 mM MgCl2, and 1 mM DTT), 100 μM 20-mer oligonucleotide substrate, 3.3 pmol of [γ-32P]ATP, A12B4C3 (0-50 μM) in 2 μl DMSO, and 1 μg of PNK were incubated at 37° C. for 20 minutes. The reaction was stopped by addition of an equal volume of DNA loading dye (90% formamide, 0.02% bromophenol blue, 0.02% xylene cyanol in 1×TBE). Samples were boiled for 5 minutes and the products separated on a 12% polyacrylamide/8 M urea gel. Gels were scanned with a Typhoon 9400 Variable Mode Imager (GE Healthcare), and quantified using Image Quant 5.2 Software (GE Healthcare).
The effect of A12B4C3 on the kinase activity of human PNKP was examined by quantifying the transfer of ^32P-labeled phosphate from radiolabeled ATP to an oligonucleotide. […] However, the inhibition of the kinase and phosphatase activities cannot be directly compared because the standard assay for kinase activity uses ten-fold more enzyme than the assay for phosphatase activity

[2] = target: T2, Schizosaccharomyces pombe PNKP (Schizosaccharomyces pombe, UniProt O13911); test: PiColorLock 3'-phosphatase assay, fission yeast PNKP; details: read-out: inhibition of S. pombe PNKP
T2 construct: made in house
T2 sequence (O13911 1-408): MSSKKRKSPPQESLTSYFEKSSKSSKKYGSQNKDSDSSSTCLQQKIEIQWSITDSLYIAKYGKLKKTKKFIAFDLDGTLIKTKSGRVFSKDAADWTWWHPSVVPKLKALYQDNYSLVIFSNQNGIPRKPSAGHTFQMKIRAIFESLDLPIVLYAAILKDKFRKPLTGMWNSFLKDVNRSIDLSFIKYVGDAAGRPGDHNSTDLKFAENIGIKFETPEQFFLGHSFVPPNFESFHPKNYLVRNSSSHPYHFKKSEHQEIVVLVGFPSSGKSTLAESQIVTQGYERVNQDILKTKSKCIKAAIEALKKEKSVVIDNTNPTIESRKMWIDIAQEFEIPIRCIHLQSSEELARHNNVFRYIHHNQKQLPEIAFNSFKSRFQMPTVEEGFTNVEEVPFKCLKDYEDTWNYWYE
Text: To determine the specificity of A12B4C3 for human PNKP phosphatase activity, a number of closely related phosphatases such as the PNKP enzymes isolated from bacteriophage T4, Schizosaccharomyces pombe and mouse, as well as aprataxin, were examined.

calcineurin = calcineurin (Rattus norvegicus, UniProt P63329); test: Calcineurin pNPP phosphatase assay; details: concentration as high as 83.3 μM
Procedure: PP-1cγ and calcineurin activity was analyzed, using a colorimetric p-nitrophenol phosphate (pNPP) assay as previously described (33). The reaction were carried out in a 96-well microplate with a final volume of 60 μl containing 40 μl of pNPP assay buffer (50 mM Tris, pH 7.4, 0.1 mM EDTA, 30 mM MgCl2, 0.5 mM MnCl2, 1 mg/ml BSA, 0.2% β-mercaptoethanol), 0.03 μg PP-1cγ (specific activity>30 units per mg) or a catalytically equivalent quantity of calcineurin and 10 μl of 0.5 mM DNA 3′-phosphatase inhibitor sample in DMSO or 10 μl of 50 μM A12B4C3 sample in DMSO, or control solvent. After a 10-minute incubation at 37° C., 10 μl of 30 mM pNPP was added to each well and incubated for an additional of 60 minutes and 45 minutes for PP-1cγ and calcineurin, respectively. The absorbance at 405 nm was measured using a SOFTmax 2.35 microplate reader (Molecular Devices, Sunnyvale, Calif.).

## CCCCCCCCCCC(O)C1C=CC2C(=O)N(c3ccccc3)C(=O)C2N1Nc1ccc([N+](=O)[O-])cc1 (stereo not shown) [Compound A12B4C3, 2-(1-hydroxyundecyl)-1-(4-nitrophenylamino)-6-phenyl-6,7a-dihydro-1H-pyrrolo[3,4-b]pyridine-5,7(2H,4aH)-dione]
[1]; 1 μM
  inhibition at 1 µM: ~16%
[1]; 50 μM
  reduction of human PNKP kinase activity: ~30%
[2]
  inhibition at 50 µM: ~20%
calcineurin
  inhibition of calcineurin: Neither enzyme displayed inhibition; also recorded: no inhibition
